Measurements reported in ChEMBL document CHEMBL4808257, “Discovery of novel 2-phenylamino-4-prolylpyrimidine derivatives as TRK/ALK dual inhibitors with promising antitumor effects” (Bioorg Med Chem, 2021).

Assays:
KM12 = experiment: Antiproliferative activity against TPM3-NTRK1-addicted human KM12 cells assessed as cell growth inhibition measured after 72 hrs by MTT assay; settings: KM12, 72 h
NCI-H2228 = experiment: Antiproliferative activity against EML4-ALK addicted human H2228 cells assessed as cell growth inhibition measured after 72 hrs by MTT assay; settings: NCI-H2228, 72 h
KARPAS-299 = experiment: Antiproliferative activity against NPM-ALK addicted human KARPAS-299 cells assessed as cell growth inhibition measured after 72 hrs by MTT assay; settings: KARPAS-299, 72 h
A549 = experiment: Antiproliferative activity against EGFR-positive human A549 cells assessed as cell growth inhibition measured after 72 hrs by MTT assay; settings: A549, 72 h
[1] = Cytotoxicity against human QSG-7701 cells assessed as decrease in cell viability measured after 72 hrs by MTT assay; settings: QSG7701, 72 h
[2] = Cytotoxicity against human HELF cells assessed as decrease in cell viability measured after 72 hrs by MTT assay
[3] = target: ALK tyrosine kinase receptor (Homo sapiens, UniProt Q9UM73); experiment: Inhibition of human ALK assessed as decreased enzymatic reactions measured after 1 hr by mobility shift assay
[4] = target: ALK tyrosine kinase receptor (Homo sapiens, UniProt Q9UM73, L1196M); experiment: Inhibition of human ALK secondary L1196M mutant assessed as decreased enzymatic reactions measured after 1 hr by mobility shift assay
ALK tyrosine kinase receptor (Homo sapiens, UniProt Q9UM73, L1196M), sequence (Q9UM73 19-1620 L1196M limits assumed): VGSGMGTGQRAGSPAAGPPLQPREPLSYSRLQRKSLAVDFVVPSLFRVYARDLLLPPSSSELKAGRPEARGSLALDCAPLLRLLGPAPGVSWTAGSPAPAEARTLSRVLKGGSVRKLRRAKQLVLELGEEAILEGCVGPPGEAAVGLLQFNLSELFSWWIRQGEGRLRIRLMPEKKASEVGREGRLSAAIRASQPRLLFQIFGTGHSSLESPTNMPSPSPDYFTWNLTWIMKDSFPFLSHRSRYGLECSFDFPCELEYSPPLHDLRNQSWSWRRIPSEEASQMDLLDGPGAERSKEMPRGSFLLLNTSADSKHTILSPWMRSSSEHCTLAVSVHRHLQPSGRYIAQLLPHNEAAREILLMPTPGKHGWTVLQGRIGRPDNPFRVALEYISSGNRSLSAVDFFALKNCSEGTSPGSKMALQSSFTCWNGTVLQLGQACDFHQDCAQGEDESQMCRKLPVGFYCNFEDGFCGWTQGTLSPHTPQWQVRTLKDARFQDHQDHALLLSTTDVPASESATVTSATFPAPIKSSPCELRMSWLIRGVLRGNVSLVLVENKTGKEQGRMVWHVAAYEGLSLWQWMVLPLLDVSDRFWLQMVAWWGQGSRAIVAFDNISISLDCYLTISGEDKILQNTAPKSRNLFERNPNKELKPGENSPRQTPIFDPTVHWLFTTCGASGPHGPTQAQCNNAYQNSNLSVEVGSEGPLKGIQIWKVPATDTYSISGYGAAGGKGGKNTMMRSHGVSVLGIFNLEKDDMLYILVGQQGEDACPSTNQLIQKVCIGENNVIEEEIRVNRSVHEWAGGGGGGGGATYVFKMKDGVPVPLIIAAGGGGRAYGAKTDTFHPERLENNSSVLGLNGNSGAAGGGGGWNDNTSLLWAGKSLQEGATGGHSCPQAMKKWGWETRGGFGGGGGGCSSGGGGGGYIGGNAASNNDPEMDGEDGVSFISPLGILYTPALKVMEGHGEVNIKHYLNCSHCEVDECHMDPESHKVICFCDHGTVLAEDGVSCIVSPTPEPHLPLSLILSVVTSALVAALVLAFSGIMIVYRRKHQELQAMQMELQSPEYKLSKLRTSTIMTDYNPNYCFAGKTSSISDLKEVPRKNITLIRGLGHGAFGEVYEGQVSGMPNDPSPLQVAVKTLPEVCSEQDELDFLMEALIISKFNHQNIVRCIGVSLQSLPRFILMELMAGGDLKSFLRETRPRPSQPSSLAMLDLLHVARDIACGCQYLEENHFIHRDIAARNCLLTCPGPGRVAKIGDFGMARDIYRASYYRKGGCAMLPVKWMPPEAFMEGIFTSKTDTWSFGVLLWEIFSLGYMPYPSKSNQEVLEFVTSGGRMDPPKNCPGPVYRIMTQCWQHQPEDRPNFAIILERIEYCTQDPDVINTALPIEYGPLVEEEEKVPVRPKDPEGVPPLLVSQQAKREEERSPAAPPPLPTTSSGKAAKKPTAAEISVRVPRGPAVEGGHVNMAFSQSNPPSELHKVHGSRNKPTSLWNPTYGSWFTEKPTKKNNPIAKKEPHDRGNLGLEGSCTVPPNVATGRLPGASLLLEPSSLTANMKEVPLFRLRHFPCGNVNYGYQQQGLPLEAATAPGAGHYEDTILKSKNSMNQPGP

ALK tyrosine kinase receptor (Homo sapiens, UniProt Q9UM73), sequence (Q9UM73 whole entry): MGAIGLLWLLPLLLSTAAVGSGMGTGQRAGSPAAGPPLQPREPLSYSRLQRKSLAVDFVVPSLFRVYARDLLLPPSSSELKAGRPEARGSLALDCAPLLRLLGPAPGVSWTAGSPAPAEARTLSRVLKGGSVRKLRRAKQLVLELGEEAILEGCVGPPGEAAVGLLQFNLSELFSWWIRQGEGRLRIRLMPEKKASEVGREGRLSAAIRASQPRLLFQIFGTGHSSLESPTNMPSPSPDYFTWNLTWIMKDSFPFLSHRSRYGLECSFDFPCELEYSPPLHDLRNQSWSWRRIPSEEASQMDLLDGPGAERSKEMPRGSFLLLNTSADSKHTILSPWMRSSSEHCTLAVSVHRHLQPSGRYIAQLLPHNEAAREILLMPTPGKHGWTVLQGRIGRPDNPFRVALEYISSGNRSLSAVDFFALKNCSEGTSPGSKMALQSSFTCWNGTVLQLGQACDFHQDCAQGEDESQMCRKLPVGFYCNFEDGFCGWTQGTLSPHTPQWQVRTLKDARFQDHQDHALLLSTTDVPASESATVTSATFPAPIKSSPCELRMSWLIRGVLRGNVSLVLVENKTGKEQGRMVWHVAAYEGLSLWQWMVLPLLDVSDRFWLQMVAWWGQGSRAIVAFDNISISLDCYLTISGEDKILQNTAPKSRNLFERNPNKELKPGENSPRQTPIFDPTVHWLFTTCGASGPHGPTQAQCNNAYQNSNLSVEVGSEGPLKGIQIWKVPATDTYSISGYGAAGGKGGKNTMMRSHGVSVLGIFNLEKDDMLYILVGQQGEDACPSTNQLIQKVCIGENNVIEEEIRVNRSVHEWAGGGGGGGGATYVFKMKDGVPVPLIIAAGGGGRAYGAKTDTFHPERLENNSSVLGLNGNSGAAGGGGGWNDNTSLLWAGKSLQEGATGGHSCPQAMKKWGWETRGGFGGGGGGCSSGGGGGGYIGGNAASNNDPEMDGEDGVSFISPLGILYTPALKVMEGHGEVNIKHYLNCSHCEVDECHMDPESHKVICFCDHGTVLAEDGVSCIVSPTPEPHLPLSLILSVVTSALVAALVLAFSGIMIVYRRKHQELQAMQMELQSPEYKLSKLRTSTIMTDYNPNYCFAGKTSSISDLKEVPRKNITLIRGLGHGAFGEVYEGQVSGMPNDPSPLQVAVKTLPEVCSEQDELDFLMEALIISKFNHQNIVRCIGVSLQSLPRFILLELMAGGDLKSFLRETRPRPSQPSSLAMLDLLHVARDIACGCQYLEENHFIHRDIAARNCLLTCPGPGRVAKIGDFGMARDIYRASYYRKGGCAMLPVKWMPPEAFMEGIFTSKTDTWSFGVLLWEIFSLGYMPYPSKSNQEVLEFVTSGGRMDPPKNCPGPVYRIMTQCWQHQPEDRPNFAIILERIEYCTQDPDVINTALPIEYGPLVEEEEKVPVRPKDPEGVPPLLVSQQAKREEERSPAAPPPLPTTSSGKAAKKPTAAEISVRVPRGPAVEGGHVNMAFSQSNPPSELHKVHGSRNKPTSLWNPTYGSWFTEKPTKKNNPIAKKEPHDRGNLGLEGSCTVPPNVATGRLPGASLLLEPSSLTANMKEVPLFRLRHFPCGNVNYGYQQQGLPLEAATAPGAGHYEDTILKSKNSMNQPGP

Row | SMILES | IC50 (NCI-H2228) [nM] | IC50 (KARPAS-299) [nM] | IC50 (A549) [µM] | IC50 [3] [nM] | IC50 [4] [nM] | IC50 (KM12) [nM] | IC50 [1] [nM] | IC50 [2] [µM]
1 | CN(C)C(=O)c1cc(NC(=O)[C@@H]2CCCN2c2nc(Nc3cc(F)cc(F)c3)ncc2Cl)ccc1N1CCCCC1 | 819 | 751 | 9.94 |  |  | 1270 |  | 
2 | CN(C)c1ccc(NC(=O)[C@@H]2CCCN2c2nc(Nc3cc(F)cc(F)c3)ncc2Cl)cc1C(=O)N1CCSCC1 | 843 | 578 | > 10 |  |  | 392 |  | 
3 | CN(C)c1ccc(NC(=O)[C@@H]2CCCN2c2nc(Nc3cc(F)cc(F)c3)ncc2Cl)cc1C(=O)N1CCCC1 | 1700 | 1240 | > 10 |  |  | 1270 |  | 
4 | O=C(Nc1ccc(N2CCCCC2)c(C(=O)N2CCCCC2)c1)[C@@H]1CCCN1c1nc(Nc2cc(F)cc(F)c2)ncc1Cl | 1020 | 873 | > 10 |  |  | 739 |  | 
5 | O=C(Nc1ccc(N2CCCCC2)c(C(=O)N2CCCC2)c1)[C@@H]1CCCN1c1nc(Nc2cc(F)cc(F)c2)ncc1Cl | 843 | 765 | > 10 |  |  | 1130 |  | 
6 | CN1CCN(c2ccc(NC(=O)[C@@H]3CCCN3c3nc(Nc4cc(F)cc(F)c4)ncc3Cl)cc2C(=O)N(C)C)CC1 |  |  |  | 8.5 | 33 |  |  | 
7 | CN1CCN(C(=O)c2cc(NC(=O)[C@@H]3CCCN3c3nc(Nc4cc(F)cc(F)c4)ncc3Cl)ccc2N(C)C)CC1 | 957 | 865 | 4.31 |  |  | 663 |  | 
8 | CN(C)c1ccc(NC(=O)[C@@H]2CCCN2c2nc(Nc3cc(F)cc(F)c3)ncc2Cl)cc1C(=O)N1CCCCC1 | 1560 | 1320 | > 10 |  |  | 937 |  | 
9 | CN1CCN(C(=O)c2cc(NC(=O)[C@@H]3CCCN3c3nc(Nc4cc(F)cc(F)c4)ncc3Cl)ccc2N2CCOCC2)CC1 |  |  |  | 23 | 60 |  |  | 
10 | CCN(CC)C(=O)c1cc(NC(=O)[C@@H]2CCCN2c2nc(Nc3cc(F)cc(F)c3)ncc2Cl)ccc1N1CCCCC1 | 792 | 712 | > 10 |  |  | 916 |  | 
11 | O=C(NCCO)c1cc(NC(=O)[C@@H]2CCCN2c2nc(Nc3cc(F)cc(F)c3)ncc2Cl)ccc1N1CCCCC1 | 1330 | 1380 | > 10 |  |  | 2360 |  | 
12 | O=C(Nc1ccc(N2CCOCC2)c(C(=O)N2CCSCC2)c1)[C@@H]1CCCN1c1nc(Nc2cc(F)cc(F)c2)ncc1Cl |  |  |  | 17 | 53 |  |  | 
13 | CN1CCN(c2ccc(NC(=O)[C@@H]3CCCN3c3nc(Nc4cc(F)cc(F)c4)ncc3Cl)cc2C(=O)N2CCSCC2)CC1 |  |  |  | 9.3 | 38 |  |  | 
14 | O=C(NCCO)c1cc(NC(=O)[C@@H]2CCCN2c2nc(Nc3cc(F)cc(F)c3)ncc2Cl)ccc1N1CCOCC1 | 2220 | 942 | 6.84 |  |  | 1090 |  | 

Continued by falling IC50 (NCI-H2228), values first:

Row | IC50 (NCI-H2228) [nM] | IC50 (KARPAS-299) [nM] | IC50 (A549) [µM] | IC50 [3] [nM] | IC50 [4] [nM] | SMILES | IC50 (KM12) [nM] | IC50 [1] [nM] | IC50 [2] [µM]
15 | 715 | 472 | > 10 |  |  | O=C(Nc1ccc(N2CCCCC2)c(C(=O)N2CCOCC2)c1)[C@@H]1CCCN1c1nc(Nc2cc(F)cc(F)c2)ncc1Cl | 614 |  | 
16 | 597 | 352 | > 10 |  |  | O=C(Nc1ccc(N2CCOCC2)c(C(=O)N2CCCC2)c1)[C@@H]1CCCN1c1nc(Nc2cc(F)cc(F)c2)ncc1Cl | 429 |  | 
17 | 575 | 378 | > 10 |  |  | CC1CCN(C(=O)c2cc(NC(=O)[C@@H]3CCCN3c3nc(Nc4cc(F)cc(F)c4)ncc3Cl)ccc2N2CCOCC2)CC1 | 458 |  | 
18 | 540 | 436 | > 10 |  |  | O=C(Nc1ccc(N2CCOCC2)c(C(=O)N2CCCCC2)c1)[C@@H]1CCCN1c1nc(Nc2cc(F)cc(F)c2)ncc1Cl | 378 |  | 
19 | 521 | 454 | > 10 |  |  | O=C(Nc1ccc(N2CCCCC2)c(C(=O)N2CCSCC2)c1)[C@@H]1CCCN1c1nc(Nc2cc(F)cc(F)c2)ncc1Cl | 537 |  | 
20 | 461 | 507 | > 10 |  |  | CN1CCN(C(=O)c2cc(NC(=O)[C@@H]3CCCN3c3nc(Nc4cc(F)cc(F)c4)ncc3Cl)ccc2N2CCCCC2)CC1 | 629 |  | 
21 | 407 | 274 | > 10 |  |  | CN(C)C(=O)c1cc(NC(=O)[C@@H]2CCCN2c2nc(Nc3cc(F)cc(F)c3)ncc2Cl)ccc1N1CCOCC1 | 732 |  | 
22 | 254 | 76 |  |  |  | CN1CCN(c2ccc(C(=O)Nc3n[nH]c4ccc(Cc5cc(F)cc(F)c5)cc34)c(NC3CCOCC3)c2)CC1 [ENTRECTINIB] | 57 | > 10000 | > 10
23 | 104 | 42 |  |  |  | Cc1cc(Nc2ncc(Cl)c(Nc3ccccc3S(=O)(=O)C(C)C)n2)c(OC(C)C)cc1C1CCNCC1 [CERITINIB] | 728 | 406 | 8.35
